Legend:
[1] = test system: AEGCY (jointed goatgrass); assay: Post-emergence herbicidal activity, cool season; assay type: in vivo, Aegilops cylindrica; conditions: abraded plants sprayed at 300, 100, 30 and 10 g/ha; about 14 days after treatment
Outline: (§1)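 GR80 values derive from percent growth inhibition scored approximately 14 days post-spray against abraded, unsprayed controls under an 18/13 °C regime. Foliar application to sandblast-abraded plants used rates of 300, 100, 30 and 10 g/ha in 50:50 acetone/water at 3,100 l/ha.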

STEME (common chickweed) = assay: Pre-emergence herbicidal activity, cool season; assay type: in vivo, Stellaria media; conditions: lowest tested rate with 80% or greater inhibition; rates 300, 100, 30, 10 g/ha; about 14 days
Outline: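 GR80 values derive from percent inhibition relative to untreated plants, read roughly 14 days after sowing and pre-emergence soil-surface treatment (compound in 50:50 acetone/water; rates typically 10, 30, 100, 300 g/ha). Warm-season weeds grew at 30/21° C day/night, cool-season ones at 18/13° C; an asterisk marks activity without reaching 80% at the highest rate.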

LOLMG (annual ryegrass) = assay: Post-emergence herbicidal activity, cool season; assay type: in vivo, Lolium multiflorum; conditions: abraded plants sprayed at 300, 100, 30 and 10 g/ha; about 14 days after treatment
Outline: as §1

SETFA (giant foxtail) = assay: Pre-plant incorporated (PPI) herbicidal activity, warm season; assay type: in vivo, Setaria faberi; conditions: for PPI activity GR80, SETFA: pre-plant incorporated, lowest tested rate with 80% or greater inhibition, about 14 days
Protocol: (§2) In another set of tests, the pre-plant incorporated (PPI) activity of compounds of this invention was evaluated on the same species as for the pre-emergence tests described above. In the PPI tests the following procedure, designed to simulate PPI application, was used.
(§3) A pre-prepared topsoil mixture (described above) was placed in a pot and compacted to a depth of 1.0 to 1.25 cm from the top of the pot. Seeds of each of several monocotyledonous and dicotyledonous annual plant species were placed on top of the soil. A sufficient quantity of soil to cover the seeds and level fill the pot was weighed into an open container. A known amount of the test compound was dissolved or suspended in an organic solvent and applied by spraying to this cover soil. The cover soil was thoroughly mixed to distribute the test compound throughout the cover soil, and was then applied as a cover layer over the seeds. Untreated soil was used as a cover layer for control pots. After treatment the plants were placed in a greenhouse where they received 0.64 cm of overhead irrigation. All subsequent watering consisted of a light overhead mist and/or subirrigation as needed for germination and growth. Tables 9 and 10 below relate to warm season plant species which were placed after pre-emergence treatment in a greenhouse with a 30/21° C. day/night temperature regime. Tables 11 and 12 below relates to cool season plant species placed after pre-emergence treatment in a greenhouse or growth chamber with an 18/13° C. day/night temperature regime. Only the compounds of Examples 1, 6, 8, 11, 13 and 15-20 were included in PPI tests.
(§4) Approximately 14 days after planting and treating, the plants were observed and herbicidal efficacy recorded as percent inhibition by comparison with untreated plants.

ECHCG (barnyardgrass) = assay: as above; assay type: in vivo, Echinochloa crus-galli; conditions: for PPI activity GR80, ECHCG: pre-plant incorporated, lowest tested rate with 80% or greater inhibition, about 14 days
Protocol: as §2, §3, §4

XANST (cocklebur) = assay: as above; assay type: in vivo, Xanthium strumarium; conditions: PPI application
Protocol: as §2, §3, §4

SORVU (shattercane) = assay: as above; assay type: in vivo, Sorghum vulgare; conditions: for PPI activity GR80, SORVU: pre-plant incorporated, lowest tested rate with 80% or greater inhibition, about 14 days
Protocol: as §2, §3, §4

[2] = test system: AGRRE (quackgrass (seedling)); assay: Pre-plant incorporated (PPI) herbicidal activity, cool season; assay type: in vivo, Elymus repens; conditions: for PPI activity GR80, AGRRE: pre-plant incorporated, lowest tested rate with 80% or greater inhibition, about 14 days
Protocol: as §2, §3, §4

Compound: CCN(CC)C(=O)n1cnc(S(=O)(=O)C(F)(F)SCCOC)n1 [Example 13]
- Post-emergence activity GR80, AEGCY [1]: [empty]
- Pre-emergence activity GR80, STEME (STEME (common chickweed)): 100 g/ha
- Post-emergence activity GR80, LOLMG (LOLMG (annual ryegrass)): [empty]
- Percent inhibition SETFA (SETFA (giant foxtail); PPI application, 10 g/ha): 0%
- Percent inhibition SETFA (SETFA (giant foxtail); PPI application, 30 g/ha): 99%
- Percent inhibition SETFA (SETFA (giant foxtail); PPI application, 100 g/ha): 90%
- Percent inhibition SETFA (SETFA (giant foxtail); PPI application, 300 g/ha): 100%
- Percent inhibition SETFA (SETFA (giant foxtail); PPI application, 900 g/ha): 100%
- PPI activity GR80, SETFA (SETFA (giant foxtail)): 30 g/ha
- Percent inhibition ECHCG (ECHCG (barnyardgrass); PPI application, 10 g/ha): 10%
- Percent inhibition ECHCG (ECHCG (barnyardgrass); PPI application, 30 g/ha): 80%
- Percent inhibition ECHCG (ECHCG (barnyardgrass); PPI application, 100 g/ha): 100%
- Percent inhibition ECHCG (ECHCG (barnyardgrass); PPI application, 300 g/ha): 100%
- Percent inhibition ECHCG (ECHCG (barnyardgrass); PPI application, 900 g/ha): 100%
- PPI activity GR80, ECHCG (ECHCG (barnyardgrass)): 100 g/ha
- Percent inhibition XANST (XANST (cocklebur); 10 g/ha): 0%
- Percent inhibition XANST (XANST (cocklebur); 30 g/ha): 0%
- Percent inhibition XANST (XANST (cocklebur); 100 g/ha): 0%
- Percent inhibition XANST (XANST (cocklebur); 300 g/ha): 0%
- Percent inhibition XANST (XANST (cocklebur); 900 g/ha): 30%
- Percent inhibition SORVU (SORVU (shattercane); PPI application, 10 g/ha): 0%
- Percent inhibition SORVU (SORVU (shattercane); PPI application, 30 g/ha): 50%
- Percent inhibition SORVU (SORVU (shattercane); PPI application, 100 g/ha): 90%
- Percent inhibition SORVU (SORVU (shattercane); PPI application, 300 g/ha): 100%
- Percent inhibition SORVU (SORVU (shattercane); PPI application, 900 g/ha): 100%
- PPI activity GR80, SORVU (SORVU (shattercane)): 300 g/ha
- PPI activity GR80, AGRRE [2]: * (activity observed, at least at highest rate, but <80% inhibition)
- Percent inhibition AGRRE ([2]; weed, PPI application, 10 g/ha): 0%
- Percent inhibition AGRRE ([2]; weed, PPI application, 30 g/ha): 0%
- Percent inhibition AGRRE ([2]; weed, PPI application, 100 g/ha): 20%
- Percent inhibition AGRRE ([2]; weed, PPI application, 300 g/ha): 40%
- Percent inhibition AGRRE ([2]; weed, PPI application, 900 g/ha): 60%

Compound: C=CCC(F)(F)S(=O)(=O)c1ncn(C(=O)N(CC)CC)n1 [Example 17, 1-(N,N-diethylcarbamoyl)-3-[(1,1-difluoro-3-butenyl)sulfonyl]-1,2,4-triazole]
- Post-emergence activity GR80, AEGCY [1]: [empty]
- Pre-emergence activity GR80, STEME (STEME (common chickweed)): 100 g/ha
- Post-emergence activity GR80, LOLMG (LOLMG (annual ryegrass)): [empty]
- inhibition at 10 g/ha (SETFA (giant foxtail); Setaria faberi, PPI application, 10 g/ha, read-out: Percent inhibition SETFA): 100%
- inhibition at 30 g/ha (SETFA (giant foxtail); Setaria faberi, PPI application, 30 g/ha, read-out: Percent inhibition SETFA): 100%
- inhibition at 100 g/ha (SETFA (giant foxtail); Setaria faberi, PPI application, 100 g/ha, read-out: Percent inhibition SETFA): 100%
- inhibition at 300 g/ha (SETFA (giant foxtail); Setaria faberi, PPI application, 300 g/ha, read-out: Percent inhibition SETFA): 100%
- inhibition at 900 g/ha (SETFA (giant foxtail); Setaria faberi, PPI application, 900 g/ha, read-out: Percent inhibition SETFA): 100%
- PPI activity GR80, SETFA (SETFA (giant foxtail)): 10 g/ha
- inhibition at 10 g/ha (ECHCG (barnyardgrass); Echinochloa crus-galli, PPI application, 10 g/ha, read-out: Percent inhibition ECHCG): 40%
- inhibition at 30 g/ha (ECHCG (barnyardgrass); Echinochloa crus-galli, PPI application, 30 g/ha, read-out: Percent inhibition ECHCG): 95%
- inhibition at 100 g/ha (ECHCG (barnyardgrass); Echinochloa crus-galli, PPI application, 100 g/ha, read-out: Percent inhibition ECHCG): 100%
- inhibition at 300 g/ha (ECHCG (barnyardgrass); Echinochloa crus-galli, PPI application, 300 g/ha, read-out: Percent inhibition ECHCG): 100%
- inhibition at 900 g/ha (ECHCG (barnyardgrass); Echinochloa crus-galli, PPI application, 900 g/ha, read-out: Percent inhibition ECHCG): 100%
- PPI activity GR80, ECHCG (ECHCG (barnyardgrass)): 30 g/ha
- inhibition at 10 g/ha (XANST (cocklebur); Xanthium strumarium, 10 g/ha, read-out: Percent inhibition XANST): 0%
- inhibition at 30 g/ha (XANST (cocklebur); Xanthium strumarium, 30 g/ha, read-out: Percent inhibition XANST): 0%
- inhibition at 100 g/ha (XANST (cocklebur); Xanthium strumarium, 100 g/ha, read-out: Percent inhibition XANST): 0%
- inhibition at 300 g/ha (XANST (cocklebur); Xanthium strumarium, 300 g/ha, read-out: Percent inhibition XANST): 20%
- inhibition at 900 g/ha (XANST (cocklebur); Xanthium strumarium, 900 g/ha, read-out: Percent inhibition XANST): 100%
- inhibition at 10 g/ha (SORVU (shattercane); Sorghum bicolor, PPI application, 10 g/ha, read-out: Percent inhibition SORVU): 20%
- inhibition at 30 g/ha (SORVU (shattercane); Sorghum bicolor, PPI application, 30 g/ha, read-out: Percent inhibition SORVU): 70%
- inhibition at 100 g/ha (SORVU (shattercane); Sorghum bicolor, PPI application, 100 g/ha, read-out: Percent inhibition SORVU): 100%
- inhibition at 300 g/ha (SORVU (shattercane); Sorghum bicolor, PPI application, 300 g/ha, read-out: Percent inhibition SORVU): 100%
- inhibition at 900 g/ha (SORVU (shattercane); Sorghum bicolor, PPI application, 900 g/ha, read-out: Percent inhibition SORVU): 100%
- PPI activity GR80, SORVU (SORVU (shattercane)): * (activity observed, at least at highest rate, but <80% inhibition)
- inhibition at 10 g/ha ([2]; Elymus repens, weed, PPI application, 10 g/ha, read-out: Percent inhibition AGRRE): 0%
- inhibition at 30 g/ha ([2]; Elymus repens, weed, PPI application, 30 g/ha, read-out: Percent inhibition AGRRE): 40%
- inhibition at 100 g/ha ([2]; Elymus repens, weed, PPI application, 100 g/ha, read-out: Percent inhibition AGRRE): 50%
- inhibition at 300 g/ha ([2]; Elymus repens, weed, PPI application, 300 g/ha, read-out: Percent inhibition AGRRE): 60%
- inhibition at 900 g/ha ([2]; Elymus repens, weed, PPI application, 900 g/ha, read-out: Percent inhibition AGRRE): 70%
- PPI activity GR80, AGRRE [2]: 100 g/ha

Source: patent US6461997B1, “Triazole sulfones having herbicidal activity” (Monsanto Technology LLC, priority 1999, dated 2002)
